Data taken from US20180139987A1, “PHARMACEUTICAL POWDER COMPOSITION AND ITS USE IN THE CONTROL OF POST-PRANDIAL GLYCAEMIC PROFILE” (OMNIBLEND INNOVATION PTY LTD, priority 2015, published 2018).

What was measured:
Healthy Participant = assay: Post-prandial glycemic profile (finger-prick blood sugar) after white rice breakfast, healthy participant; assay type: in vivo, human; conditions: HP2 healthy participant, 125 g white rice
Text: 125 g microwaveable white rice (details, amount of available carbohydrate?) was eaten together with a cup of water. Finger-prick blood sugar readings were taken before consumption of the standard meal in the morning (i.e. the standard meal was breakfast). Two readings were taken and the average value was used as the blood sugar reading. After consumption of the meal, another blood sugar reading was taken. Further blood sugar readings were taken at 15-minute intervals thereafter. A subject (HP2, Healthy Participant) was given a standard white rice breakfast, containing 125 g cooked white rice (example A3), and was tested for post-prandial glycemic profile-this was the first control glycemic profile. […] This was the third control glycemic profile. On another day, the same subject was given the acarbose-containing pre-meal drink described in example A1 (this drink is prepared according to the invention). This was the test glycemicsrofile.

[1] = test system: subject with type 2 diabetes; assay: Post-prandial glycemic profile (finger-prick blood sugar) after white rice breakfast, subjects with type 2 diabetes; assay type: in vivo, human
Method: 160 g microwaveable white rice (details, amount of available carbohydrate?) was eaten together with a cup of water.
240 g microwaveable white rice (Uncle Bens Brand Microwavable White Rice, […] of available carbohydrate) and 200 ml of hot tea.
Finger-prick blood sugar readings were taken before consumption of the standard meal in the morning (i.e. the standard meal was breakfast). Two readings were taken and the average value was used as the blood sugar reading. After consumption of the meal, another blood sugar reading was taken. Further blood sugar readings were taken at 15-minute intervals thereafter.
A subject with type 2 diabetes (T2D1, person) was given a standard white rice breakfast (Example A2) and was tested for post-prandial glycemic profile—this was the first control glycemic profile. […] This was the third control glycemic profile. […] This was the test glycemic profile. […]
A subject with type 2 diabetes (T2D5, person) was given a standard white rice breakfast (Example A2) and was tested for post-prandial glycemic profile—this was the first control glycemic profile. […] This was the third control glycemic profile. […] This was the test glycemic profile.
This was the second glycemic test profile.
This was the second test glycemic profile.
This was the first glycemic test profile.

[2] = test system: subject with type 2 diabetes; assay: Post-prandial glycemic profile (finger-prick blood sugar) after white bread breakfast, subjects with type 2 diabetes; assay type: in vivo, human
Text: 2 slices of thick-cut savoury white bread spread with 29 g jam (over both slices) were eaten together with a cup of tea or coffee. A total available carbohydrate per serve was 50 g. 2 slices of thick-cut savoury white bread spread with 29 g jam (over both slices) were eaten together with a cup of tea or coffee. […] A total available carbohydrate per serve was 50 g. Finger-prick blood sugar readings were taken before consumption of the standard meal in the morning (i.e. the standard meal was breakfast). Two readings were taken and the average value was used as the blood sugar reading. After consumption of the meal, another blood sugar reading was taken. Further blood sugar readings were taken at 15-minute intervals thereafter. […] This was the first glycemic test profile. […] This was the second glycemic test profile. […] This was the first test glycemic profile. […] This was the second glycemic test profile.

patients = conditions: 1255 patients, Acarbose tablets 50-300 mg t.i.d.; cited from earlier work

## C[C@H]1O[C@H](O[C@H]2[C@H](O)[C@@H](O)[C@@H](O[C@H]3[C@H](O)[C@@H](O)C(O)O[C@@H]3CO)O[C@@H]2CO)[C@H](O)[C@@H](O)[C@@H]1N[C@H]1C=C(CO)[C@@H](O)[C@H](O)[C@H]1O (stereo partly shown) [acarbose]
Healthy Participant; time after eating 0 min
  glycemic profile (mM blood glucose): 6.03 mM
Healthy Participant; time after eating 15 min
  glycemic profile (mM blood glucose): 6.4 mM
Healthy Participant; time after eating 30 min
  glycemic profile (mM blood glucose): 7.04 mM
Healthy Participant; time after eating 45 min
  glycemic profile (mM blood glucose): 6.75 mM
Healthy Participant; time after eating 60 min
  glycemic profile (mM blood glucose): 5.9 mM
Healthy Participant; time after eating 75 min
  glycemic profile (mM blood glucose): 6.1 mM
Healthy Participant; time after eating 90 min
  glycemic profile (mM blood glucose): 6.175 mM
Healthy Participant; time after eating 105 min
  glycemic profile (mM blood glucose): 5.8 mM
Healthy Participant; time after eating 120 min
  glycemic profile (mM blood glucose): 6.3 mM
Healthy Participant; time after eating 135 min
  glycemic profile (mM blood glucose): 6.23 mM
Healthy Participant; time after eating −15 min
  glycemic profile (mM blood glucose): 5.65 mM
[1]; T2D1, 240 g white rice (Example B3), time after eating 30 min
  glycemic profile (mM blood glucose): 9.32 mM
[1]; T2D1, 240 g white rice (Example B3), time after eating 60 min
  glycemic profile (mM blood glucose): 10.4 mM
[1]; T2D1, 240 g white rice (Example B3), time after eating 75 min
  glycemic profile (mM blood glucose): 11.0 mM
[1]; T2D1, 240 g white rice (Example B3), time after eating 90 min
  glycemic profile (mM blood glucose): 10.8 mM
[1]; T2D1, 240 g white rice (Example B3), time after eating 105 min
  glycemic profile (mM blood glucose): 11 mM
[1]; T2D1, 240 g white rice (Example B3), time after eating 120 min
  glycemic profile (mM blood glucose): 10.4 mM
[1]; T2D1, 240 g white rice (Example B3), time after eating 135 min
  glycemic profile (mM blood glucose): 10.4 mM
[1]; T2D1, 240 g white rice (Example B3), time after eating 165 min
  glycemic profile (mM blood glucose): 9.45 mM
[1]; T2D1, 240 g white rice (Example B3), time after eating 180 min
  glycemic profile (mM blood glucose): 9.66 mM
[1]; T2D1, 240 g white rice (Example B3), time after eating −25 min
  glycemic profile (mM blood glucose): 7.3 mM
[1]; T2D1, 240 g white rice (Example B7), time after eating 30 min
  glycemic profile (mM blood glucose): 9.32 mM
[1]; T2D1, 240 g white rice (Example B7), time after eating 60 min
  glycemic profile (mM blood glucose): 10.4 mM
[1]; T2D1, 240 g white rice (Example B7), time after eating 75 min
  glycemic profile (mM blood glucose): 11.0 mM
[1]; T2D1, 240 g white rice (Example B7), time after eating 90 min
  glycemic profile (mM blood glucose): 10.8 mM
[1]; T2D1, 240 g white rice (Example B7), time after eating 105 min
  glycemic profile (mM blood glucose): 11 mM
[1]; T2D1, 240 g white rice (Example B7), time after eating 120 min
  glycemic profile (mM blood glucose): 10.4 mM
[1]; T2D1, 240 g white rice (Example B7), time after eating 135 min
  glycemic profile (mM blood glucose): 10.4 mM
[1]; T2D1, 240 g white rice (Example B7), time after eating 165 min
  glycemic profile (mM blood glucose): 9.45 mM
[1]; T2D1, 240 g white rice (Example B7), time after eating 180 min
  glycemic profile (mM blood glucose): 9.66 mM
[1]; T2D1, 240 g white rice (Example B7), time after eating −25 min
  glycemic profile (mM blood glucose): 7.3 mM
[1]; T2D1, standard white rice breakfast (Example A2, 160 g), time after eating 45 min
  glycemic profile (mM blood glucose): 9.6 mM
[1]; T2D1, standard white rice breakfast (Example A2, 160 g), time after eating 60 min
  glycemic profile (mM blood glucose): 9.8 mM
[1]; T2D1, standard white rice breakfast (Example A2, 160 g), time after eating 75 min
  glycemic profile (mM blood glucose): 9.6 mM
[1]; T2D1, standard white rice breakfast (Example A2, 160 g), time after eating 90 min
  glycemic profile (mM blood glucose): 10.9 mM
[1]; T2D1, standard white rice breakfast (Example A2, 160 g), time after eating 105 min
  glycemic profile (mM blood glucose): 9.65 mM
[1]; T2D1, standard white rice breakfast (Example A2, 160 g), time after eating 120 min
  glycemic profile (mM blood glucose): 10.25 mM
[1]; T2D1, standard white rice breakfast (Example A2, 160 g), time after eating 135 min
  glycemic profile (mM blood glucose): 9.82 mM
[1]; T2D1, standard white rice breakfast (Example A2, 160 g), time after eating 150 min
  glycemic profile (mM blood glucose): 9.26 mM
[1]; T2D5, 240 g white rice (Example B2), time after eating 0 min
  glycemic profile (mM blood glucose): 7.4 mM
[1]; T2D5, 240 g white rice (Example B2), time after eating 30 min
  glycemic profile (mM blood glucose): 10.4 mM
[1]; T2D5, 240 g white rice (Example B2), time after eating 45 min
  glycemic profile (mM blood glucose): 10.1 mM
[1]; T2D5, 240 g white rice (Example B2), time after eating 60 min
  glycemic profile (mM blood glucose): 9.7 mM
[1]; T2D5, 240 g white rice (Example B2), time after eating 75 min
  glycemic profile (mM blood glucose): 9.95 mM
[1]; T2D5, 240 g white rice (Example B2), time after eating 165 min
  glycemic profile (mM blood glucose): 7.3 mM
[1]; T2D5, 240 g white rice (Example B2), time after eating 180 min
  glycemic profile (mM blood glucose): 6.5 mM
[1]; T2D5, 240 g white rice (Example B2), time after eating −10 min
  glycemic profile (mM blood glucose): 5.2 mM
[1]; T2D5, 240 g white rice (Example B2), time after eating −25 min
  glycemic profile (mM blood glucose): 5 mM
[1]; T2D5, 240 g white rice (Example B6), time after eating 0 min
  glycemic profile (mM blood glucose): 7.4 mM
[1]; T2D5, 240 g white rice (Example B6), time after eating 30 min
  glycemic profile (mM blood glucose): 10.4 mM
[1]; T2D5, 240 g white rice (Example B6), time after eating 45 min
  glycemic profile (mM blood glucose): 10.15 mM
[1]; T2D5, 240 g white rice (Example B6), time after eating 60 min
  glycemic profile (mM blood glucose): 9.76 mM
[1]; T2D5, 240 g white rice (Example B6), time after eating 75 min
  glycemic profile (mM blood glucose): 9.95 mM
[1]; T2D5, 240 g white rice (Example B6), time after eating 165 min
  glycemic profile (mM blood glucose): 7.3 mM
[1]; T2D5, 240 g white rice (Example B6), time after eating 180 min
  glycemic profile (mM blood glucose): 6.5 mM
[1]; T2D5, 240 g white rice (Example B6), time after eating −10 min
  glycemic profile (mM blood glucose): 5.2 mM
[1]; T2D5, 240 g white rice (Example B6), time after eating −25 min
  glycemic profile (mM blood glucose): 5 mM
[1]; T2D5, 240 g white rice, baselines of both profiles matched
  peak glucose height, rise above baseline: 5.3 mmol/L
[2]; T2D5, 2 slices white bread + 29 g jam (Example B4), time after eating 0 min
  glycemic profile (mM blood glucose): 8.5 mM
[2]; T2D5, 2 slices white bread + 29 g jam (Example B4), time after eating 15 min
  glycemic profile (mM blood glucose): 9.3 mM
[2]; T2D5, 2 slices white bread + 29 g jam (Example B4), time after eating 30 min
  glycemic profile (mM blood glucose): 9.5 mM
[2]; T2D5, 2 slices white bread + 29 g jam (Example B4), time after eating 45 min
  glycemic profile (mM blood glucose): 9.65 mM
[2]; T2D5, 2 slices white bread + 29 g jam (Example B4), time after eating 60 min
  glycemic profile (mM blood glucose): 9.85 mM
[2]; T2D5, 2 slices white bread + 29 g jam (Example B4), time after eating 75 min
  glycemic profile (mM blood glucose): 9.6 mM
[2]; T2D5, 2 slices white bread + 29 g jam (Example B4), time after eating 90 min
  glycemic profile (mM blood glucose): 9.8 mM
[2]; T2D5, 2 slices white bread + 29 g jam (Example B4), time after eating 105 min
  glycemic profile (mM blood glucose): 9.35 mM
[2]; T2D5, 2 slices white bread + 29 g jam (Example B4), time after eating 120 min
  glycemic profile (mM blood glucose): 9.05 mM
[2]; T2D5, 2 slices white bread + 29 g jam (Example B4), time after eating 135 min
  glycemic profile (mM blood glucose): 7.65 mM
[2]; T2D5, 2 slices white bread + 29 g jam (Example B4), time after eating 150 min
  glycemic profile (mM blood glucose): 6.93 mM
[2]; T2D5, 2 slices white bread + 29 g jam (Example B4), time after eating 165 min
  glycemic profile (mM blood glucose): 6.55 mM
[2]; T2D5, 2 slices white bread + 29 g jam (Example B4), time after eating 180 min
  glycemic profile (mM blood glucose): 5.35 mM
[2]; T2D5, 2 slices white bread + 29 g jam (Example B4), time after eating −10 min
  glycemic profile (mM blood glucose): 6.5 mM
[2]; T2D5, 2 slices white bread + 29 g jam (Example B4), time after eating −25 min
  glycemic profile (mM blood glucose): 6.25 mM
[2]; T2D9, 2 slices white bread + 29 g jam (Example B5), time after eating 0 min
  glycemic profile (mM blood glucose): 11.8 mM
[2]; T2D9, 2 slices white bread + 29 g jam (Example B5), time after eating 15 min
  glycemic profile (mM blood glucose): 12.8 mM
[2]; T2D9, 2 slices white bread + 29 g jam (Example B5), time after eating 30 min
  glycemic profile (mM blood glucose): 11.6 mM
[2]; T2D9, 2 slices white bread + 29 g jam (Example B5), time after eating 45 min
  glycemic profile (mM blood glucose): 11.3 mM
[2]; T2D9, 2 slices white bread + 29 g jam (Example B5), time after eating 60 min
  glycemic profile (mM blood glucose): 11.4 mM
[2]; T2D9, 2 slices white bread + 29 g jam (Example B5), time after eating 75 min
  glycemic profile (mM blood glucose): 11.1 mM
[2]; T2D9, 2 slices white bread + 29 g jam (Example B5), time after eating 90 min
  glycemic profile (mM blood glucose): 10.4 mM
[2]; T2D9, 2 slices white bread + 29 g jam (Example B5), time after eating 105 min
  glycemic profile (mM blood glucose): 11.0 mM
[2]; T2D9, 2 slices white bread + 29 g jam (Example B5), time after eating 120 min
  glycemic profile (mM blood glucose): 11.8 mM
[2]; T2D9, 2 slices white bread + 29 g jam (Example B5), time after eating 135 min
  glycemic profile (mM blood glucose): 11.2 mM
[2]; T2D9, 2 slices white bread + 29 g jam (Example B5), time after eating 150 min
  glycemic profile (mM blood glucose): 11.8 mM
[2]; T2D9, 2 slices white bread + 29 g jam (Example B5), time after eating 165 min
  glycemic profile (mM blood glucose): 12.9 mM
[2]; T2D9, 2 slices white bread + 29 g jam (Example B5), time after eating 180 min
  glycemic profile (mM blood glucose): 10.2 mM
[2]; T2D9, 2 slices white bread + 29 g jam (Example B5), time after eating −10 min
  glycemic profile (mM blood glucose): 9.9 mM
[2]; T2D9, 2 slices white bread + 29 g jam (Example B5), time after eating −25 min
  glycemic profile (mM blood glucose): 10.4 mM
patients
  incidence of abdominal pain: 19%
  incidence of diarrhea: 31%
  incidence of flatulence: 74%
